Results published in ChEMBL document CHEMBL3792297, “Studies on phenothiazines: New microtubule-interacting compounds with phenothiazine A-ring as potent antineoplastic agents” (Bioorg Med Chem, 2016).

Tests used:
Assay type in all cases: functional
[1] = tested on: NCI-H23; assay: Growth inhibition of human NCI-H23 cells after 48 hrs by SRB assay; details: NCI-H23, 48 h
[2] = tested on: M14; assay: Growth inhibition of human M14 cells at 10 uM after 48 hrs by SRB assay relative to control; details: M14, 48 h, read-out: GI
[3] = Growth inhibition of human COLO205 cells after 48 hrs by SRB assay; details: COLO 205, 48 h
[4] = Growth inhibition of human LOXIMVI cells at 10 uM after 48 hrs by SRB assay relative to control; details: LOX IMVI, read-out: GI
[5] = Growth inhibition of human UO31 cells after 48 hrs by SRB assay; details: UO-31, 48 h
[6] = Growth inhibition of human OVCAR4 cells at 10 uM after 48 hrs by SRB assay relative to control; details: OVCAR-4, 48 h, read-out: GI
[7] = Growth inhibition of human SNB19 cells at 10 uM after 48 hrs by SRB assay relative to control; details: SNB-19, 48 h, read-out: GI
[8] = Growth inhibition of human TK10 cells at 10 uM after 48 hrs by SRB assay relative to control; details: TK-10, 48 h, read-out: GI
[9] = Growth inhibition of human PC3 cells at 10 uM after 48 hrs by SRB assay relative to control; details: PC-3, 48 h, read-out: GI
[10] = Growth inhibition of human OVCAR5 cells at 10 uM after 48 hrs by SRB assay relative to control; details: OVCAR-5, 48 h, read-out: GI
[11] = Growth inhibition of human PC3 cells after 48 hrs by SRB assay; details: PC-3, 48 h
[12] = Growth inhibition of human LOXIMVI cells after 48 hrs by SRB assay; details: LOX IMVI
[13] = Growth inhibition of human SKOV3 cells at 10 uM after 48 hrs by SRB assay relative to control; details: SK-OV-3, 48 h, read-out: GI
[14] = tested on: SK-MEL-28; assay: Growth inhibition of human SK-MEL-28 cells after 48 hrs by SRB assay; details: SK-MEL-28, 48 h
[15] = Growth inhibition of human HOP92 cells after 48 hrs by SRB assay; details: HOP-92, 48 h
[16] = tested on: SR; assay: Growth inhibition of human SR cells after 48 hrs by SRB assay
[17] = Growth inhibition of human Caki1 cells after 48 hrs by SRB assay; details: CAKI-1, 48 h
[18] = tested on: MCF7; assay: Growth inhibition of human MCF7 cells after 48 hrs by SRB assay; details: MCF7, 48 h
[19] = Growth inhibition of human HCT116 cells after 48 hrs by SRB assay; details: HCT-116, 48 h
[20] = tested on: KM12; assay: Growth inhibition of human KM12 cells after 48 hrs by SRB assay; details: KM12, 48 h
[21] = tested on: CCRF-CEM; assay: Growth inhibition of human CCRF-CEM cells at 10 uM after 48 hrs by SRB assay relative to control; details: read-out: GI
[22] = tested on: NCI-H460; assay: Growth inhibition of human NCI-H460 cells at 10 uM after 48 hrs by SRB assay relative to control; details: NCI-H460, 48 h, read-out: GI
[23] = Growth inhibition of human NCI-ADR-RES cells after 48 hrs by SRB assay
[24] = tested on: MCF7; assay: Growth inhibition of human MCF7 cells at 10 uM after 48 hrs by SRB assay relative to control; details: MCF7, 48 h, read-out: GI
[25] = Growth inhibition of human HOP62 cells at 10 uM after 48 hrs by SRB assay relative to control; details: HOP-62, 48 h, read-out: GI
[26] = Growth inhibition of human SF268 cells after 48 hrs by SRB assay; details: SF-268, 48 h
[27] = tested on: A549; assay: Growth inhibition of human A549 cells after 48 hrs by SRB assay; details: A549, 48 h
[28] = Growth inhibition of human OVCAR8 cells at 10 uM after 48 hrs by SRB assay relative to control; details: OVCAR-8, 48 h, read-out: GI
[29] = Growth inhibition of human MOLT4 cells at 10 uM after 48 hrs by SRB assay relative to control; details: MOLT-4, 48 h, read-out: GI
[30] = tested on: SN12C; assay: Growth inhibition of human SN12C cells at 10 uM after 48 hrs by SRB assay relative to control; details: read-out: GI
[31] = Growth inhibition of human RXF393 cells at 10 uM after 48 hrs by SRB assay relative to control; details: RXF 393, 48 h, read-out: GI
[32] = Growth inhibition of human HCT15 cells after 48 hrs by SRB assay; details: HCT-15, 48 h
[33] = Growth inhibition of human OVCAR5 cells after 48 hrs by SRB assay; details: OVCAR-5, 48 h
[34] = Growth inhibition of human COLO205 cells at 10 uM after 48 hrs by SRB assay relative to control; details: COLO 205, 48 h, read-out: GI
[35] = Growth inhibition of human UACC62 cells after 48 hrs by SRB assay; details: UACC-62, 48 h
[36] = Growth inhibition of human DU145 cells after 48 hrs by SRB assay; details: DU-145, 48 h
[37] = Growth inhibition of human UACC62 cells at 10 uM after 48 hrs by SRB assay relative to control; details: UACC-62, 48 h, read-out: GI
[38] = tested on: K562; assay: Growth inhibition of human K562 cells after 48 hrs by SRB assay; details: K562, 48 h
[39] = tested on: U-251; assay: Growth inhibition of human U251 cells at 10 uM after 48 hrs by SRB assay relative to control; details: U-251, 48 h, read-out: GI
[40] = tested on: EKVX; assay: Growth inhibition of human EKVX cells at 10 uM after 48 hrs by SRB assay relative to control; details: read-out: GI
[41] = Growth inhibition of human Caki1 cells at 10 uM after 48 hrs by SRB assay relative to control; details: CAKI-1, 48 h, read-out: GI
[42] = tested on: Malme-3M; assay: Growth inhibition of human MALME-3M cells at 10 uM after 48 hrs by SRB assay relative to control; details: read-out: GI
[43] = Growth inhibition of human SNB75 cells after 48 hrs by SRB assay; details: SNB-75, 48 h
[44] = Growth inhibition of human SF539 cells after 48 hrs by SRB assay; details: SF-539, 48 h
[45] = Growth inhibition of human RXF393 cells after 48 hrs by SRB assay; details: RXF 393, 48 h
[46] = tested on: MDA-MB-435; assay: Growth inhibition of human MDA-MB-435 cells after 48 hrs by SRB assay; details: MDA-MB-435, 48 h
[47] = tested on: CCRF-CEM; assay: Growth inhibition of human CCRF-CEM cells after 48 hrs by SRB assay

Question: What does the source list for `COc1ccc(C(=O)N2c3ccccc3Sc3ccccc32)c(F)c1`?
Answer: GI50 [1]: 3420 nM; inhibition of growth at 10 µM [2]: 98%; GI50 [3]: 445 nM; inhibition of growth at 10 µM [4]: 60%; GI50 [5]: 3780 nM; inhibition of growth at 10 µM [6]: 51%; inhibition of growth at 10 µM [7]: 64%; inhibition of growth at 10 µM [8]: 55%; inhibition of growth at 10 µM [9]: 70%; inhibition of growth at 10 µM [10]: 38%; GI50 [11]: 407 nM; GI50 [12]: 727 nM; inhibition of growth at 10 µM [13]: 62%; GI50 [14]: 1640 nM; GI50 [15]: 238 nM; GI50 [16]: 380 nM; GI50 [17]: 584 nM; GI50 [18]: 405 nM; GI50 [19]: 393 nM; GI50 [20]: 489 nM; inhibition of growth at 10 µM [21]: 83%; inhibition of growth at 10 µM [22]: 88%; GI50 [23]: 517 nM; inhibition of growth at 10 µM [24]: 76%; inhibition of growth at 10 µM [25]: 63%; GI50 [26]: 10100 nM; GI50 [27]: 1190 nM; inhibition of growth at 10 µM [28]: 68%; inhibition of growth at 10 µM [29]: 73%; inhibition of growth at 10 µM [30]: 39%; inhibition of growth at 10 µM [31]: 100%; GI50 [32]: 419 nM; GI50 [33]: 3660 nM; inhibition of growth at 10 µM [34]: 92%; GI50 [35]: 382 nM; GI50 [36]: 1400 nM; inhibition of growth at 10 µM [37]: 77%; GI50 [38]: 442 nM; inhibition of growth at 10 µM [39]: 66%; inhibition of growth at 10 µM [40]: 56%; inhibition of growth at 10 µM [41]: 55%; inhibition of growth at 10 µM [42]: 53%; GI50 [43]: 288 nM; GI50 [44]: 409 nM; GI50 [45]: 764 nM; GI50 [46]: 177 nM; GI50 [47]: 522 nM

Question: What does the source list for `COc1ccc(C(=O)N2c3ccccc3Sc3ccccc32)c(OC)c1`?
Answer: GI50 [1]: 776 nM; inhibition of growth at 10 µM [2]: 100%; GI50 [3]: 333 nM; inhibition of growth at 10 µM [4]: 62%; GI50 [5]: 739 nM; inhibition of growth at 10 µM [6]: 43%; inhibition of growth at 10 µM [7]: 68%; inhibition of growth at 10 µM [8]: 44%; inhibition of growth at 10 µM [9]: 89%; inhibition of growth at 10 µM [10]: 52%; GI50 [11]: 430 nM; GI50 [12]: 601 nM; inhibition of growth at 10 µM [13]: 63%; GI50 [14]: 942 nM; GI50 [15]: 374 nM; GI50 [16]: 562 nM; GI50 [17]: 574 nM; GI50 [18]: 450 nM; GI50 [19]: 452 nM; GI50 [20]: 438 nM; inhibition of growth at 10 µM [21]: 83%; inhibition of growth at 10 µM [22]: 90%; GI50 [23]: 400 nM; inhibition of growth at 10 µM [24]: 80%; inhibition of growth at 10 µM [25]: 52%; GI50 [26]: 853 nM; GI50 [27]: 785 nM; inhibition of growth at 10 µM [28]: 72%; inhibition of growth at 10 µM [29]: 88%; inhibition of growth at 10 µM [30]: 48%; inhibition of growth at 10 µM [31]: 100%; GI50 [32]: 464 nM; GI50 [33]: 10000 nM; inhibition of growth at 10 µM [34]: 100%; GI50 [35]: 321 nM; GI50 [36]: 491 nM; inhibition of growth at 10 µM [37]: 86%; GI50 [38]: 381 nM; inhibition of growth at 10 µM [39]: 75%; inhibition of growth at 10 µM [40]: 66%; inhibition of growth at 10 µM [41]: 63%; inhibition of growth at 10 µM [42]: 33%; GI50 [43]: 209 nM; GI50 [44]: 333 nM; GI50 [45]: 413 nM; GI50 [46]: 212 nM; GI50 [47]: 394 nM
